Measured values reported in patent publication US20250114367A1, “METHOD OF TREATING HAIR LOSS DISORDERS” (Sun Pharmaceutical Industries, Inc., priority 2023, published 2025).

What was measured:
Type in all cases: in vivo, human
[1] = system: adult subjects with moderate to severe AA; assay: Phase III trial: Hospital Anxiety and Depression Scale (HADS); details: for HADS anxiety scale, LS mean change from baseline / HADS anxiety scale, LS mean treatment group difference from placebo / HADS depression scale, LS mean change from baseline / HADS depression scale, LS mean treatment group difference from placebo: Week 24
Source text: The Hospital Anxiety and Depression Scale (HADS) is used to measure anxiety and depression in a general medical population of subjects. HADS comprises of 14 items (7 items each for anxiety and depression), with a score ranging between 0 and 21 for the anxiety and depression subscales. Scores between 8 and 10 indicate a moderate presence of symptoms of anxiety and depression, whereas a score greater than 11 indicates a significant number of symptoms of anxiety and depression that likely correspond with a clinical diagnosis. The total HADS score may be regarded as a global measure of psychological distress (Roberts et al, 2001; Johnston et al, 2000). A negative change in a subject's HADS score from a starting timepoint to an end point during treatment, e.g. from baseline to Week 24 of treatment, indicates an improvement in symptoms of anxiety and depression. The HADS questionnaire was completed by subjects at baseline and Week 24. The term “baseline” as used herein refers to the HADS score (or HADS-A or HADS-D score) determined before administration of Compound (I).
(§1) Approximately 440 adult male and female subjects 18 to 65 years of age, inclusive, with moderate to severe AA participated in the study. Subjects with definitive diagnosis of AA, and at least 50% hair loss, as defined by a SALT score ≥50, who met all of the inclusion criteria and none of the exclusion criteria participated in the study.
(§2) The Screening Period lasted up to 28 days prior to initiation of study drug. […] Randomization was stratified by scalp hair loss into 1 of the following 2 categories: 1) partial scalp hair loss (SALT ≥50 and <95), 2) complete or near complete scalp hair loss (SALT ≥95).
(§3) Additional secondary efficacy endpoints included the following: • Relative change in SALT scores from baseline at Weeks 4, 8, 12, 16, 20, and 24. • Percentage of responders (defined as “much improved” or “very much improved”) using the Clinical Global Impression of Improvement (CGI-I) at Weeks 12, 16, 20, and 24. • Percentage of responders (defined as “much improved” or “very much improved”) using the Patient Global Impression of Improvement (PGI-I) at Weeks 12, 16, 20, and 24. • Change from baseline in the Clinical Global Impression of Severity (CGI-S) at Weeks 12, 16, 20, and 24. • Change from baseline in the Patient Global Impression of Severity (PGI-S) at Weeks 12, 16, 20, and 24. • Change from baseline on the Brigham Eyebrow Tool for Alopecia (BETA) score at Weeks 12 and 24. • Change from baseline on the Brigham Eyelash Tool for Alopecia (BELA) score at Weeks 12 and 24. • Percentage of subjects achieving at least a 75% relative reduction in SALT score from baseline at Weeks 12 and 24. • Percentage of subjects achieving at least a 90% relative reduction in SALT score from baseline at Weeks 12 and 24. • Percentage of responders (defined as “satisfied” or “very satisfied”) on the SPRO scale at Weeks 12, 16, and 20. • Change from baseline in the SPRO scale at Weeks 12, 16, 20, and 24. • Percentage of subjects achieving a ≥2-point change from baseline in the SPRO scale at Weeks 12, 16, 20, and 24. • Change from baseline on the individual items of the Hair Quality Patient Reported Outcome (QPRO) scale at Weeks 12, 16, 20, and 24. • Change from baseline in the depression scale of the Hospital Anxiety and Depression Scale (HADS) at Week 24. • Change from baseline in the anxiety scale of the HADS at Week 24. • Percentage of subjects achieving an absolute SALT score of ≤20 at Week 4. • Percentage of subjects achieving an absolute SALT score of ≤10 at Week 24
Changes from baseline to Week 24 in the depression scale of subjects who were randomized to treatment with deuruxolitinib 8 mg twice daily (BID), deuruxolitinib 12 mg BID, or placebo for 24 weeks were measured. Subjects completed the HADS 14-item questionnaire with 7 items for anxiety (HADS-A) and 7 items for depression (HADS-D).

[2] = system: adult subjects with moderate to severe AA; assay: Phase III trial: Patient Global Impression of Improvement (PGI-I); details: non-missing data
Protocol: The PGI-I was assessed by the subject. Compared to the subject's AA prior to treatment at baseline, the subject's current state of AA was assessed according to his/her perceived change. The subject selected 1 of 7 numeric choices representing “Very Much Worse” to “Very Much Improved.” If a subject was unable to attend an in-person clinic visit due to COVID-19, the PGI-I was to be performed via a virtual visit with video capability.
as §1, with “A Phase III trial was conducted to assess the efficacy and safety of CTP-543 in adult subjects with moderate to severe AA. Approximately” for “Approximately”
as §2, §3
Detailed data are described below.

[3] = system: adult subjects with moderate to severe AA; assay: Phase III trial: Clinical Global Impression of Improvement (CGI-I); details: non-missing data
Protocol: The CGI-I was assessed by the investigator. Compared to the subject's alopecia areata prior to treatment at baseline, the subject's current state of alopecia areata was assessed according to the investigator's perceived change. The investigator selected 1 of 7 numeric choices representing “Very Much Worse” to “Very Much Improved.” To reduce variability, 1 rater was to perform the CGI-I assessment for the subject for the duration of the study.
as §1, with “A Phase III trial was conducted to assess the efficacy and safety of CTP-543 in adult subjects with moderate to severe AA. Approximately” for “Approximately”
as §2, §3
Subjects with responses of “very much improved” or “much improved” were considered CGI-I responders. […] Detailed data are described below. At each visit, the percentage of CGI-I responders (non-missing data) was as follows: […]

[2H]C1([2H])C([C@@H](CC#N)n2cc(-c3ncnc4[nH]ccc34)cn2)C([2H])([2H])C([2H])([2H])C1([2H])[2H] [CTP-543, (R)-3-(4-(7H-pyrrolo[2,3-d]pyrimidin-4-yl)-1H-pyrazol-1-yl)-3-(cyclopentyl-2,2,3,3,4,4,5,5-d8) propanenitrile]
HADS anxiety scale, LS mean change from baseline ([1]; 8 mg BID): −1.1 | HADS anxiety scale, LS mean treatment group difference from placebo ([1]; 8 mg BID): 0.5 | HADS depression scale, LS mean change from baseline ([1]; 8 mg BID): −1.2 | HADS depression scale, LS mean treatment group difference from placebo ([1]; 8 mg BID): 0.8 | HADS anxiety scale, LS mean change from baseline ([1]; 12 mg BID): −0.9 | HADS anxiety scale, LS mean treatment group difference from placebo ([1]; 12 mg BID): 0.2 | HADS depression scale, LS mean change from baseline ([1]; 12 mg BID): −1.5 | HADS depression scale, LS mean treatment group difference from placebo ([1]; 12 mg BID): 1.1 | subjects achieving a ≥3-point improvement in the HADS-D score ([1]; baseline to Week 24, 8 mg BID): 26.2% | subjects achieving a ≥4-point improvement in the HADS-A score ([1]; baseline to Week 24, 8 mg BID): 18.9% | percentage of PGI-I responders (very much improved or much improved) ([2]; Week 24, 8 mg BID): 50.9% | percentage of PGI-I responders (very much improved or much improved) ([2]; Week 24, 12 mg BID): 68.3% | percentage of PGI-I responders (very much improved or much improved) ([2]; week 12, 8 mg BID): 43.3% | percentage of PGI-I responders (very much improved or much improved) ([2]; week 12, 12 mg BID): 49.2% | percentage of PGI-I responders (very much improved or much improved) ([2]; week 16, 8 mg BID): 46.2% | percentage of PGI-I responders (very much improved or much improved) ([2]; week 16, 12 mg BID): 59.8% | percentage of PGI-I responders (very much improved or much improved) ([2]; week 20, 8 mg BID): 48.7% | percentage of PGI-I responders (very much improved or much improved) ([2]; week 20, 12 mg BID): 64.4% | percentage of CGI-I responders (very much improved or much improved) ([3]; Week 24, 8 mg BID): 54.1% | percentage of CGI-I responders (very much improved or much improved) ([3]; Week 24, 12 mg BID): 61.7% | percentage of CGI-I responders (very much improved or much improved) ([3]; week 12, 8 mg BID): 38.0% | percentage of CGI-I responders (very much improved or much improved) ([3]; week 12, 12 mg BID): 44.3% | percentage of CGI-I responders (very much improved or much improved) ([3]; week 16, 8 mg BID): 45.0% | percentage of CGI-I responders (very much improved or much improved) ([3]; week 16, 12 mg BID): 52.0% | percentage of CGI-I responders (very much improved or much improved) ([3]; week 20, 8 mg BID): 50.0% | percentage of CGI-I responders (very much improved or much improved) ([3]; week 20, 12 mg BID): 9.0%
